Measured values as given in BindingDB's records for patent US11795173 (Xinthera, 2023).

What was measured:
[1] = target: Poly [ADP-ribose] polymerase 1 (Homo sapiens, UniProt P09874); assay: Biochemical (FP) Assay
Protocol: (§1) PARP1 and PARP2 protein were expressed, purified, and diluted in assay buffer containing 50 mM Tris pH 8.0, 0.001% Triton X-100, 10 mM MgCI2, 150 mM NaCI to a final concentration of 20 nM.

[2] = target: Poly [ADP-ribose] polymerase 2 (Homo sapiens, UniProt Q9UGN5); assay: Biochemical (FP) Assay
Protocol: as §1

Poly [ADP-ribose] polymerase 2, sequence (Q9UGN5 whole entry): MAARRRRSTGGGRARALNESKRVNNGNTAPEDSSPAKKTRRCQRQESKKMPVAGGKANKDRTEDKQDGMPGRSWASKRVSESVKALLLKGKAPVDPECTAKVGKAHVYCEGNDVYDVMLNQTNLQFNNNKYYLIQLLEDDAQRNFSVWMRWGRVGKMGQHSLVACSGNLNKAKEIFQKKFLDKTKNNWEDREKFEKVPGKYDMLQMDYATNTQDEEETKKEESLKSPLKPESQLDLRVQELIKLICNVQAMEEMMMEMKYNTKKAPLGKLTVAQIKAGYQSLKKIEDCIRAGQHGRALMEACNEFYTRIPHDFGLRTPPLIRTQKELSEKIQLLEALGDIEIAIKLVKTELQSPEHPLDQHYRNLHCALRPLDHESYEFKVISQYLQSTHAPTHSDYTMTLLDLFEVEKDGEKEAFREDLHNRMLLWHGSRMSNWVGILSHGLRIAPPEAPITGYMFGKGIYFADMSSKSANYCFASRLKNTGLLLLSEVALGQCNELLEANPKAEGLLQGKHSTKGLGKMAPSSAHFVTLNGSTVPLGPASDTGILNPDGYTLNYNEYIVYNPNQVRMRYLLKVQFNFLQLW
Poly [ADP-ribose] polymerase 1, sequence (P09874 whole entry): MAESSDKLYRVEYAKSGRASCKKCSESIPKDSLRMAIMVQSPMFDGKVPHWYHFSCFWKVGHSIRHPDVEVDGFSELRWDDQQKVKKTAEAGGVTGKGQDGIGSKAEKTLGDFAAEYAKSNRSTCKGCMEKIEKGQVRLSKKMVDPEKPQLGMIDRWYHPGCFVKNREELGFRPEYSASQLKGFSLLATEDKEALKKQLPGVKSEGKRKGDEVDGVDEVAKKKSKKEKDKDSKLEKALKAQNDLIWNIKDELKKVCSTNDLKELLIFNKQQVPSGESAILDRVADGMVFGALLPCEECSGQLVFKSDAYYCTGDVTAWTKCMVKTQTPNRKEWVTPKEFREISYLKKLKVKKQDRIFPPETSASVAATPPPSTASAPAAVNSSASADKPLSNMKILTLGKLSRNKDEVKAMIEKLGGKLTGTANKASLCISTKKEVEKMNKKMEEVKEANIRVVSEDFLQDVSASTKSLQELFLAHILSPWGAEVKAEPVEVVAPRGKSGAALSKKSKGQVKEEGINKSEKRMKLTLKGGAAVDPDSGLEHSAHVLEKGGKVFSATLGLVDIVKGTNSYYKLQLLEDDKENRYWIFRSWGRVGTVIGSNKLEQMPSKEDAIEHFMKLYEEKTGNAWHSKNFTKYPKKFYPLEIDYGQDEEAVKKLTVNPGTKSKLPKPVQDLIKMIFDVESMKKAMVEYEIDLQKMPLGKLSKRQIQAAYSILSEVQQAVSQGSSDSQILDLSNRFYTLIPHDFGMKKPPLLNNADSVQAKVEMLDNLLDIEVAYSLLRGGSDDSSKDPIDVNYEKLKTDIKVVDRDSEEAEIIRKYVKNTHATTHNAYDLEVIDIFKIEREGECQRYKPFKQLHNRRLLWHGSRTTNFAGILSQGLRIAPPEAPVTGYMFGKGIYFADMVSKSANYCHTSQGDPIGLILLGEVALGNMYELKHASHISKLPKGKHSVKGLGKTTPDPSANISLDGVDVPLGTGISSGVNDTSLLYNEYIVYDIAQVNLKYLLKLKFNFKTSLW

Row | Structure (SMILES) | IC50 [1] [nM] | IC50 [2] [nM]
1 | CNC(=O)c1ccc(N2CCN(Cc3cc(F)c4c5c(c(=O)[nH]c4c3)COC5)CC2)c(F)n1 [US11795173, Comp. Ex. 3] | 4.3 | > 100000
2 | CNC(=O)c1ccc(N2CCN(Cc3ccc4c5c(c(=O)[nH]c4c3)CCO5)CC2)c(Cl)n1 [US11795173, Comp. Ex. 2] | 4 | > 100000
